Laboratory results reported in ChEMBL document CHEMBL1201862, “PubChem BioAssay data set” (2004).
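Protocol summary: plate cells (96-well), add compound at 5 concentrations, incubate 48 h, interpolate endpoints linearly. Abbreviation: GI50, concentration required for 50% inhibition of growth.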 Active and inactive are the calls of the source. Rule as the data show it: active = GI50 up to about 1.1 µM and inactive = higher.

Columns and labels:
Experiment in all cases: NCI anticancer screen, dose series, 48 h
[1] = tested on: HT-29
[2] = tested on: EKVX
[3] = tested on: OVCAR-3
[4] = tested on: M14
[5] = tested on: OVCAR-8
[6] = tested on: CCRF-CEM
[7] = tested on: MOLT-4
[8] = tested on: SK-MEL-28
[9] = tested on: HCT-15
[10] = tested on: MDA-MB-435
[11] = tested on: SF-268
[12] = tested on: OVCAR-4
[13] = tested on: K562
[14] = tested on: T47D
[15] = tested on: UACC-257
[16] = tested on: KM12
[17] = tested on: SK-OV-3
[18] = tested on: MDA-MB-231
[19] = tested on: IGROV-1
[20] = tested on: OVCAR-5
[21] = tested on: U-251
[22] = tested on: SNB-75
[23] = tested on: DU-145
[24] = tested on: LOX IMVI
[25] = tested on: HOP-62
[26] = tested on: SK-MEL-5
[27] = tested on: SN12C
[28] = tested on: RPMI-8226
[29] = tested on: A549
[30] = tested on: HCC 2998
[31] = tested on: CAKI-1
[32] = tested on: NCI-H23
[33] = tested on: HL-60
[34] = tested on: SK-MEL-2
[35] = tested on: SW-620
[36] = tested on: 786-0
[37] = tested on: NCI-H226
[38] = tested on: Hs-578T
[39] = tested on: HOP-92
[40] = tested on: SNB-19
[41] = tested on: SR
[42] = tested on: NCI-H460
[43] = tested on: UO-31
[44] = tested on: NCI/ADR-RES
[45] = tested on: UACC-62
[46] = tested on: RXF 393
[47] = tested on: ACHN
[48] = tested on: HCT-116
[49] = tested on: MDA-N
[50] = tested on: Malme-3M
[51] = tested on: SF-295
[52] = tested on: COLO 205
[53] = tested on: TK-10
[54] = tested on: PC-3
[55] = tested on: MCF7
[56] = tested on: NCI-H522
[57] = tested on: A498
[58] = tested on: SF-539

Structure (SMILES): NC(=S)NNC(=S)NC(=O)c1ccco1
- GI50 [1]: > 10 µM (inactive)
- GI50 [2]: > 10 µM (inactive)
- GI50 [3]: > 10 µM (inactive)
- GI50 [4]: > 10 µM (inactive)
- GI50 [5]: > 10 µM (inactive)
- GI50 [6]: > 10 µM (inactive)
- GI50 [7]: > 10 µM (inactive)
- GI50 [8]: > 10 µM (inactive)
- GI50 [9]: > 10 µM
- GI50 [10]: > 10 µM (inactive)
- GI50 [11]: > 10 µM (inactive)
- GI50 [12]: > 10 µM (inactive)
- GI50 [13]: > 10 µM (inactive)
- GI50 [14]: > 10 µM (inactive)
- GI50 [15]: > 10 µM (inactive)
- GI50 [16]: > 10 µM (inactive)
- GI50 [17]: > 10 µM (inactive)
- GI50 [18]: > 10 µM (inactive)
- GI50 [19]: > 10 µM (inactive)
- GI50 [20]: > 10 µM (inactive)
- GI50 [21]: > 10 µM (inactive)
- GI50 [22]: > 10 µM (inactive)
- GI50 [23]: > 10 µM (inactive)
- GI50 [24]: > 10 µM (inactive)
- GI50 [25]: > 10 µM (inactive)
- GI50 [26]: > 10 µM (inactive)
- GI50 [27]: > 10 µM (inactive)
- GI50 [28]: > 10 µM (inactive)
- GI50 [29]: > 10 µM (inactive)
- GI50 [30]: > 10 µM (inactive)
- GI50 [31]: > 10 µM (inactive)
- GI50 [32]: > 10 µM (inactive)
- GI50 [33]: > 10 µM (inactive)
- GI50 [34]: > 10 µM (inactive)
- GI50 [35]: > 10 µM (inactive)
- GI50 [36]: > 10 µM (inactive)
- GI50 [37]: > 10 µM (inactive)
- GI50 [38]: > 10 µM (inactive)
- GI50 [39]: > 10 µM (inactive)
- GI50 [40]: > 10 µM (inactive)
- GI50 [41]: > 10 µM (inactive)
- GI50 [42]: > 10 µM (inactive)
- GI50 [43]: > 10 µM (inactive)
- GI50 [44]: > 10 µM (inactive)
- GI50 [45]: > 10 µM (inactive)
- GI50 [46]: > 10 µM (inactive)
- GI50 [47]: > 10 µM (inactive)
- GI50 [48]: > 10 µM (inactive)
- GI50 [49]: > 10 µM (inactive)
- GI50 [50]: > 10 µM (inactive)

Structure (SMILES): COc1cccc(/C=C/c2ccc(S(N)(=O)=O)cc2)c1
- GI50 [2]: 11.8 µM (inactive)
- GI50 [3]: 5.31 µM (inactive)
- GI50 [4]: 36.1 µM (inactive)
- GI50 [51]: 6.75 µM (inactive)
- GI50 [8]: 44 µM (inactive)
- GI50 [52]: 11.7 µM (inactive)
- GI50 [14]: 4.94 µM (inactive)
- GI50 [15]: 16.4 µM (inactive)
- GI50 [17]: 30.4 µM (inactive)
- GI50 [18]: 25.1 µM (inactive)
- GI50 [20]: 59.4 µM (inactive)
- GI50 [22]: 17.4 µM (inactive)
- GI50 [23]: 26.1 µM (inactive)
- GI50 [25]: 24 µM (inactive)
- GI50 [26]: 17.1 µM (inactive)
- GI50 [27]: 18.2 µM (inactive)
- GI50 [53]: 12.5 µM (inactive)
- GI50 [30]: 10.5 µM (inactive)
- GI50 [34]: 5.9 µM (inactive)
- GI50 [36]: 17.8 µM (inactive)
- GI50 [40]: 46.6 µM (inactive)
- GI50 [54]: 22.7 µM (inactive)
- GI50 [42]: 10.3 µM (inactive)
- GI50 [43]: 18.6 µM (inactive)
- GI50 [44]: 23.1 µM (inactive)
- GI50 [46]: 5.5 µM (inactive)
- GI50 [55]: 8.07 µM (inactive)
- GI50 [48]: 7.36 µM (inactive)
- GI50 [49]: 17 µM (inactive)
- GI50 [50]: 23.2 µM (inactive)

Structure (SMILES): NC(=O)NC(=O)c1cnccn1
- GI50 [2]: > 100 µM (inactive)
- GI50 [3]: > 100 µM (inactive)
- GI50 [4]: > 100 µM (inactive)
- GI50 [51]: > 100 µM (inactive)
- GI50 [6]: > 100 µM (inactive)
- GI50 [7]: > 100 µM (inactive)
- GI50 [8]: > 100 µM (inactive)
- GI50 [9]: > 100 µM
- GI50 [10]: > 100 µM (inactive)
- GI50 [11]: > 100 µM (inactive)
- GI50 [12]: > 100 µM (inactive)
- GI50 [52]: > 10 µM (inactive)
- GI50 [13]: > 100 µM (inactive)
- GI50 [15]: > 100 µM (inactive)
- GI50 [16]: > 100 µM (inactive)
- GI50 [17]: > 100 µM (inactive)
- GI50 [18]: > 100 µM (inactive)
- GI50 [20]: > 100 µM (inactive)
- GI50 [21]: > 100 µM (inactive)
- GI50 [23]: > 100 µM (inactive)
- GI50 [24]: > 100 µM (inactive)
- GI50 [25]: > 100 µM (inactive)
- GI50 [26]: > 10 µM (inactive)
- GI50 [27]: > 100 µM (inactive)
- GI50 [56]: > 100 µM (inactive)
- GI50 [28]: > 100 µM (inactive)
- GI50 [29]: > 100 µM (inactive)
- GI50 [53]: 12.1 µM (inactive)
- GI50 [30]: > 100 µM (inactive)
- GI50 [31]: > 100 µM (inactive)
- GI50 [32]: > 100 µM (inactive)
- GI50 [34]: > 100 µM (inactive)
- GI50 [35]: > 100 µM (inactive)
- GI50 [36]: > 100 µM (inactive)
- GI50 [37]: 54.1 µM (inactive)
- GI50 [57]: > 100 µM (inactive)
- GI50 [39]: > 100 µM (inactive)
- GI50 [40]: > 100 µM (inactive)
- GI50 [58]: > 100 µM (inactive)
- GI50 [54]: > 100 µM (inactive)
- GI50 [42]: > 100 µM (inactive)
- GI50 [43]: > 100 µM (inactive)
- GI50 [44]: > 100 µM (inactive)
- GI50 [45]: > 100 µM (inactive)
- GI50 [46]: > 100 µM (inactive)
- GI50 [55]: > 100 µM (inactive)
- GI50 [47]: > 100 µM (inactive)
- GI50 [48]: > 100 µM (inactive)
- GI50 [49]: > 100 µM (inactive)
- GI50 [50]: > 100 µM (inactive)
